Experimental data taken from patent US10703764B2, “Benzopiperazine compositions as BET bromodomain inhibitors” (FORMA Therapeutics, Inc., priority 2013, dated 2020).
Blank lines part the entries; values can stand above or below the molecule they belong to.

Columns and labels:
BRD4 BD1 = molecular target: T1, BRD4 BD1 (Homo sapiens, UniProt O60885); experiment: AlphaScreen binding assay, BRD4 Bromodomain 1
T1 construct: made in house
Outline: (§1)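 Compound dilution series were mixed with His-tagged BRD4 bromodomain and biotinylated tetra-acetylated H4 (1-21) peptide at pH 7.3 (BD1 and peptide at 50 nM, BD2 and peptide at 100 nM). Donor and acceptor beads were then added, and plates were equilibrated at least 1 h before reading. IC50 values were fitted with a four-parameter logistic model.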

BRD4 BD2 = molecular target: T2, BRD4 BD2 (Homo sapiens, UniProt O60885); experiment: AlphaScreen binding assay, BRD4 Bromodomain 2
T2 construct: made in house
Outline: as §1

IC50 (BRD4 BD1): 1 to 10 µM | IC50 (BRD4 BD2): 0.05 to 0.5 µM
Structure (SMILES): CC(=O)N1c2ccc(-c3ccns3)cc2N(C(=O)c2ccco2)C[C@@H]1C [Example I-434]

IC50 (BRD4 BD1): 0.1 to 1 µM | IC50 (BRD4 BD2): 0.05 to 0.5 µM
Structure (SMILES): C[C@H]1CN(C(=O)C2CC2)c2cc(-c3ccc(N4CCCS4(=O)=O)cc3)ccc2N1C(=O)C1CC1 [Example I-440]

IC50 (BRD4 BD1): 0.1 to 1 µM | IC50 (BRD4 BD2): 0.05 to 0.5 µM
Structure (SMILES): CC(=O)N1c2ccc(-c3cnc(N)cn3)cc2N(C(=O)C2CC2)C[C@@H]1C [Example I-441]

IC50 (BRD4 BD1): 1 to 10 µM | IC50 (BRD4 BD2): 0.05 to 0.5 µM
Structure (SMILES): C[C@H]1CN(C(=O)C2CC2)c2cc(-c3cnc(N)cn3)ccc2N1C(=O)C1CC1 [Example I-442]

IC50 (BRD4 BD1): 0.1 to 1 µM | IC50 (BRD4 BD2): 0.05 to 0.5 µM
Structure (SMILES): C[C@H]1CN(C(=O)C2CC2)c2cc(-c3ccc(C4(O)COC4)cc3)ccc2N1C(=O)C1CC1 [Example I-444]

IC50 (BRD4 BD1): 0.1 to 1 µM | IC50 (BRD4 BD2): 0.05 to 0.5 µM
Structure (SMILES): C[C@H]1CN(C(=O)C2CC2)c2cc(-c3ccc(CS(N)(=O)=O)cc3)ccc2N1C(=O)C1CC1 [Example I-446]

IC50 (BRD4 BD1): 0.1 to 1 µM | IC50 (BRD4 BD2): < 0.05 µM
Structure (SMILES): C[C@H]1CN(C(=O)C2CC2)c2cc(-c3ccc(S(=O)(=O)CCN)cc3)ccc2N1C(=O)C1CC1 [Example I-448]

IC50 (BRD4 BD1): 1 to 10 µM | IC50 (BRD4 BD2): 0.05 to 0.5 µM
Structure (SMILES): C[C@H]1CN(C(=O)C2CC2)c2cc(-c3ccc(S(=O)(=O)CCO)cc3)ccc2N1C(=O)C1CC1 [Example I-450]

IC50 (BRD4 BD1): 0.1 to 1 µM | IC50 (BRD4 BD2): 0.05 to 0.5 µM
Structure (SMILES): CC(=O)N1c2ccc(-c3ccc(C(=O)NCCN)cc3)cc2N(C(=O)C2CC2)C[C@@H]1C [Example I-451]

IC50 (BRD4 BD1): 1 to 10 µM | IC50 (BRD4 BD2): 0.05 to 0.5 µM
Structure (SMILES): C[C@H]1CN(C(=O)C2CC2)c2cc(-c3ccc(C(=O)NCCN)cc3)ccc2N1C(=O)C1CC1 [Example I-452]

IC50 (BRD4 BD1): 1 to 10 µM | IC50 (BRD4 BD2): 0.05 to 0.5 µM
Structure (SMILES): CC(=O)N1c2ccc(-c3cn(C)nn3)cc2N(C(=O)C2CC2)C[C@@H]1C [Example I-453]

IC50 (BRD4 BD1): 1 to 10 µM | IC50 (BRD4 BD2): 0.05 to 0.5 µM
Structure (SMILES): C[C@H]1CN(C(=O)C2CC2)c2cc(-c3cn(C)nn3)ccc2N1C(=O)C1CC1 [Example I-454]

IC50 (BRD4 BD1): 1 to 10 µM | IC50 (BRD4 BD2): 0.05 to 0.5 µM
Structure (SMILES): COC(=O)N1c2ccc(-c3ccc(N4CCCS4(=O)=O)cc3)cc2N(C(=O)C2CC2)C[C@@H]1C [Example I-457]

IC50 (BRD4 BD1): 1 to 10 µM | IC50 (BRD4 BD2): 0.05 to 0.5 µM
Structure (SMILES): COC(=O)N1c2ccc(-c3cnc(N)cn3)cc2N(C(=O)C2CC2)C[C@@H]1C [Example I-458]

IC50 (BRD4 BD1): 1 to 10 µM | IC50 (BRD4 BD2): 0.05 to 0.5 µM
Structure (SMILES): COC(=O)N1c2ccc(-c3ccc(C4(O)COC4)cc3)cc2N(C(=O)C2CC2)C[C@@H]1C [Example I-459]

More lines, now with the values behind:

Structure (SMILES): CC(=O)N1c2ccc(-c3cccc(-c4noc(C)n4)c3)cc2N(C(=O)c2ccco2)C[C@@H]1C [Example I-402]
IC50 (BRD4 BD1): 1 to 10 µM | IC50 (BRD4 BD2): < 0.05 µM

Structure (SMILES): CC(=O)N1c2ccc(-c3nnc(C)s3)cc2N(C(=O)c2ccco2)C[C@@H]1C [Example I-403]
IC50 (BRD4 BD1): 1 to 10 µM | IC50 (BRD4 BD2): 0.05 to 0.5 µM

Structure (SMILES): CC(=O)N1c2ccc(-c3ccc4nn(C)cc4c3)cc2N(C(=O)c2ccco2)C[C@@H]1C [Example I-404]
IC50 (BRD4 BD1): 1 to 10 µM | IC50 (BRD4 BD2): 0.05 to 0.5 µM

Structure (SMILES): CC(=O)N1c2ccc(-c3cccc(-c4ncccn4)c3)cc2N(C(=O)c2ccco2)C[C@@H]1C [Example I-405]
IC50 (BRD4 BD1): 1 to 10 µM | IC50 (BRD4 BD2): 0.05 to 0.5 µM

Structure (SMILES): CC(=O)N1c2ccc(-c3ccn4ccnc4n3)cc2N(C(=O)c2ccco2)C[C@@H]1C [Example I-406]
IC50 (BRD4 BD1): > 10 µM | IC50 (BRD4 BD2): > 0.5 µM

Structure (SMILES): CC(=O)N1c2ccc(C(=O)c3ccccc3)cc2N(C(=O)c2ccco2)C[C@@H]1C [Example I-408]
IC50 (BRD4 BD1): 1 to 10 µM | IC50 (BRD4 BD2): > 0.5 µM

Structure (SMILES): CC(=O)N1c2ccc(-c3ccc(=O)n(C)c3)cc2N(C(=O)c2ccco2)C[C@@H]1C [Example I-411]
IC50 (BRD4 BD1): 1 to 10 µM | IC50 (BRD4 BD2): 0.05 to 0.5 µM

Structure (SMILES): CC(=O)N1c2ccc(-c3ccc(-c4nnco4)cc3)cc2N(C(=O)c2ccco2)C[C@@H]1C [Example I-416]
IC50 (BRD4 BD1): 1 to 10 µM | IC50 (BRD4 BD2): < 0.05 µM

Structure (SMILES): CC(=O)N1c2ccc(-c3ccc(CS(N)(=O)=O)cc3)cc2N(C(=O)c2ccco2)C[C@@H]1C [Example I-418]
IC50 (BRD4 BD1): 1 to 10 µM | IC50 (BRD4 BD2): < 0.05 µM

Structure (SMILES): CC(=O)N1c2ccc(-c3cnn(C)n3)cc2N(C(=O)c2ccco2)C[C@@H]1C [Example I-419]
IC50 (BRD4 BD1): 0.1 to 1 µM | IC50 (BRD4 BD2): > 0.5 µM

Structure (SMILES): CC(=O)N1c2ccc(-c3ccc(-c4cc(C(=O)O)[nH]n4)cc3)cc2N(C(=O)c2ccco2)CC1C (stereo not drawn) [Example I-421]
IC50 (BRD4 BD1): 0.1 to 1 µM | IC50 (BRD4 BD2): < 0.05 µM

Structure (SMILES): CC(=O)N1c2ccc(-c3ccc(N4CCCS4(=O)=O)cc3)cc2N(C(=O)c2ccco2)C[C@@H]1C [Example I-424]
IC50 (BRD4 BD1): 0.1 to 1 µM | IC50 (BRD4 BD2): < 0.05 µM

Structure (SMILES): CC(=O)N1c2ccc(-c3ncc(N)s3)cc2N(C(=O)c2ccco2)C[C@@H]1C [Example I-431]
IC50 (BRD4 BD1): > 10 µM | IC50 (BRD4 BD2): > 0.5 µM

Structure (SMILES): CC(=O)N1c2ccc(-c3cnsc3)cc2N(C(=O)c2ccco2)C[C@@H]1C [Example I-432]
IC50 (BRD4 BD1): 0.1 to 1 µM | IC50 (BRD4 BD2): 0.05 to 0.5 µM

Structure (SMILES): CC(=O)N1c2ccc(-c3ccc(S(=O)(=O)CC(=O)N(C)C)cc3)cc2N(C(=O)c2ccco2)C[C@@H]1C [Example I-433]
IC50 (BRD4 BD1): 0.1 to 1 µM | IC50 (BRD4 BD2): 0.05 to 0.5 µM
